The source of these data is patent US5370770A, “Method for deinking printed waste paper using soybean peroxidase” (priority 1992, dated 1994).

The target of data set [1] is T1, Horseradish Peroxidase (HRP) (Armoracia rusticana, UniProt P00433).
T1 sequence (P00433 31-353): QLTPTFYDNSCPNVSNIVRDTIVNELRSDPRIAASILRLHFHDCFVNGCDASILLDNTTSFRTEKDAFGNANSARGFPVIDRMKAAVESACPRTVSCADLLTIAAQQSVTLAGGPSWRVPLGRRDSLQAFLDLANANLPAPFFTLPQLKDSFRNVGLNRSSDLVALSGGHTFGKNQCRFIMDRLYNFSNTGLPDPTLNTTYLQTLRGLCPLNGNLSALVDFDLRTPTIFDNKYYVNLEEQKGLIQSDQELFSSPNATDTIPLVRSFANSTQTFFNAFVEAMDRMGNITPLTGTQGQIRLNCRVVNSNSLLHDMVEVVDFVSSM
Nature of the data set: Oxidation of methoxybenzene substrates by horseradish peroxidase (redox potential comparison). It is filed as biochemical. The following applies: absorbance change at substrate λmax. The source says:
(§1) Any of a variety of peroxidases can be used in the present invention.
(§2) *all values in Δ Abs/(mg enzymemin).

The target of the next data set is Soybean Peroxidase (SBP) (Glycine max, UniProt O22443). Nature of the data set: Oxidation of methoxybenzene substrates by soybean peroxidase (redox potential comparison). Format: biochemical. Particulars: absorbance change at substrate λmax.
Text: as §1, §2
**curve of ΔAbs/time slopes upward as reaction proceeds.

The nature of data set [2]: Half-wave redox potential of substrates. It is filed as physicochemical. The following applies: redox potential of substrate.

Sequence of Soybean Peroxidase (SBP) (O22443 27-332): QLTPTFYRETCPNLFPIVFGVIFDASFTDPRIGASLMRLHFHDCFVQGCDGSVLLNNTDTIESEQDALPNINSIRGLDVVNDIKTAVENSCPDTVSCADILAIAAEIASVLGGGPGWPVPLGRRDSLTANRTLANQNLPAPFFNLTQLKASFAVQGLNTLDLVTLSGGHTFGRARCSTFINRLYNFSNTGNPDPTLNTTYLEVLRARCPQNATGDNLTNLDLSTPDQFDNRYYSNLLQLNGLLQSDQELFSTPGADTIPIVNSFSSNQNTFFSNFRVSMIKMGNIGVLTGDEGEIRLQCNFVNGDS

As to `COc1cc(OC)c(OC)c(OC)c1` [1,2,3,5-tetramethoxybenzene], in data set [1], the HRP was 0.30 Δ Abs/(mg enzymemin). For the same compound, the SBP at Soybean Peroxidase (SBP) was 3.02 Δ Abs/(mg enzymemin). Also, in data set [2], the “E1/2 (V)” value turned out to be 1.09 V.

Consider `COc1ccc(OC)c(OC)c1` [1,2,4-trimethoxybenzene], for which, in data set [1], the HRP is recorded as 1.64 Δ Abs/(mg enzymemin). In addition, the SBP at Soybean Peroxidase (SBP) is given as 9.23 Δ Abs/(mg enzymemin). In data set [2], the “E1/2 (V)” value was determined as 1.12 V.

`COc1ccc(OC)cc1` [1,4-dimethoxybenzene]: the HRP in data set [1] is reported as 0 Δ Abs/(mg enzymemin). In addition, the SBP on Soybean Peroxidase (SBP) was 0.072 Δ Abs/(mg enzymemin). In data set [2], the “E1/2 (V)” value was determined as 1.34 V.

Regarding `COc1c(OC)c(OC)c(OC)c(OC)c1OC` [hexamethoxybenzene], the HRP in data set [1] is 0 Δ Abs/(mg enzymemin). In addition, the SBP at Soybean Peroxidase (SBP) is recorded as 0.22 Δ Abs/(mg enzymemin). For the same compound, the “E1/2 (V)” value in data set [2] came to 1.24 V.

Take `COc1cc(OC)c(OC)c(OC)c1OC` [pentamethoxybenzene]: the HRP in data set [1] is given as 2.50 Δ Abs/(mg enzymemin). The SBP at Soybean Peroxidase (SBP) was 8.76 Δ Abs/(mg enzymemin). The “E1/2 (V)” value in data set [2] is 1.07 V.
